Patent publication US5670492A, “DC-89 derivatives” (priority 1994, dated 1997)
Values after ≈ are worked out from the molar mass of the structure shown. Like-named read-outs stand apart in the source and are kept apart here.

How the values were obtained:
HeLaS3 cells = assay: Growth Inhibitory Effect Against HeLaS3 cells; format: cell-based; settings: Homo sapiens
Experimental: HeLaS3 cells were suspended in MEM medium containing 10% calf serum and 2 mM glutamine to a concentration of 2.67×10^4 cells/mi. The cell suspension thus prepared was put into wells of a 24-well culture plate in an amount of 0.75 ml per well. After the cells were incubated in a CO2 incubator overnight at 37° C., Compound (I) which had been appropriately diluted with a culture medium was added to each well in an amount of 0.25 ml.
The cells were further incubated in the CO2 incubator for 72 hours, and the culture supernatant was removed. Then, the cells were dispersed in a solution of trypsin and EDTA and recovered. The number of cells was counted using a cell counter. The concentration (IC50) of Compound (I) at which the growth of the cells is inhibited by 50% was calculated by comparing the number of untreated cells with the number of the cells treated with Compound (I) at known concentrations.

[1] = Test for Solubility in Water; format: physicochemical; settings: room temperature
Experimental: A sample tube was charged with 0.7 mg of Compound (I), and 30 μl of water were added thereto at room temperature. The mixture was stirred, and the solubility in water was measured. When the compound was not dissolved, 30 μl of water was added thereto successively, and the mixture was stirred. The solubility in water was measured when the compound was dissolved.

ddY-strain male mice = assay: Acute Toxicity; format: in vivo; settings: i.v., mortality at 14 days after administration
Experimental: Compound (I) was intravenously administered to ddY-strain male mice each weighing 20±1 g. MLD (minimum lethal dose) was determined by observing the mortality at 14 days after administration.

Sarcoma 180 tumor = assay: Therapeutic Effect Against Sarcoma 180 Tumor; format: in vivo, male ddY-strain mice; settings: Mus musculus, Sarcoma-180, iv, 168 h, read-out: T/C
Experimental: Five male ddY-strain mice each weighing 18-20 g were used for each group as test animals, and 5×10^5 Sarcoma 180 tumor cells were implanted at the axilla subcutaneously. One day after the implantation, 0.2 ml of a physiological saline containing Compound (I) at the concentration shown in Table 2 was intravenously administered to each mouse. T/C [T: average tumor volume (mm^3) of the group treated with the test compound, C: average tumor volume (mm^3) of the control group (to which […] of a physiological saline was intravenously administered)] was determined seven days after the implantation.

[2] = HeLa S3, 72 hours, read-out: IC50
[3] = 1.0 mg/kg, single i.v. one day after s.c. implantation, tumor volume ratio seven days after implantation

Row | Structure (SMILES) | IC50 (HeLaS3 cells; [2]) [nM] | solubility [1] [mg/mL] | MLD (minimum lethal dose) (ddY-strain male mice) [mg/kg] | IC50 (HeLaS3 cells; HeLa S3, 72 h) [nM] | further results
1 | COC(=O)Oc1cc2c(c3c(C(=O)OC)c(C)[nH]c13)C(CBr)CN2C(=O)/C=C/c1ccc(OC)c(N)c1 (stereo not shown) [Compound 38] | 0.67 | – | – | – | –
2 | COC(=O)c1c(C)[nH]c2c(OC(=O)N3CCN(C)CC3)cc3c(c12)C(CBr)CN3C(=O)/C=C/c1ccc(OC)c(N)c1 (stereo not shown) [Compound 40] | – | > 20 | – | – | –
3 | COC(=O)c1c(C)[nH]c2c1C13CC1CN(C(=O)/C=C/c1ccc(OC)c(N(C)C)c1)C3=CC2=O (stereo not shown) [Compound 41] | 0.92 | – | – | – | –
4 | COC(=O)c1c(C)[nH]c2c(OC(=O)N3CCN(C)CC3)cc3c(c12)C(CBr)CN3C(=O)/C=C/c1ccc(OC)c(N(C)C)c1 (stereo not shown) [Compound 43] | – | < 0.5 | 4.0 | 52 | response vs control in vivo at 2 mg/kg (Sarcoma 180 tumor): 13%
5 | COC(=O)c1c(C)[nH]c2c(OC(C)=O)cc3c(c12)C(CBr)CN3C(=O)/C=C/c1ccc(OC)c(N(C)C)c1 (stereo not shown) [Compound 45] | – | > 20 | 1.0 | 0.54 | response vs control in vivo at 1 mg/kg (Sarcoma 180 tumor): 20%
6 | CCN(CC)c1cc(/C=C/C(=O)N2CC(CBr)c3c2cc(OC(=O)N2CCN(C)CC2)c2[nH]c(C)c(C(=O)OC)c32)ccc1OC (stereo not shown) [Compound 49] | – | > 20 | > 8.0 | 280 | response vs control in vivo at 8 mg/kg (Sarcoma 180 tumor): 20%
7 | COC(=O)c1c(C)[nH]c2c(OC(C)=O)cc3c(c12)C(CCl)CN3C(=O)/C=C/c1ccc(OC)c(N(C)C)c1 (stereo not shown) [Compound 51] | 0.46 | > 10 | 4.0 | – | response vs control in vivo at 4 mg/kg (Sarcoma 180 tumor; 4.0 mg/kg, single i.v. one day after s.c. implantation, tumor volume ratio seven days after implantation): 14%
8 | COC(=O)c1c(C)[nH]c2c(OC(=O)N(C)N)cc3c(c12)C(CBr)CN3C(=O)/C=C/c1ccc(OC)c(N(C)C)c1 (stereo not shown) [Compound 53] | – | – | 2.0 | 1.2 | response vs control in vivo at 2 mg/kg (Sarcoma 180 tumor): 7%
9 | COC(=O)c1c(C)[nH]c2c(OC(=O)c3ccc(N(C)C)cc3)cc3c(c12)C(CBr)CN3C(=O)/C=C/c1ccc(OC)c(N(C)C)c1 (stereo not shown) [Compound 56] | – | – | 1.0 | 2.2 | response vs control in vivo at 1 mg/kg (Sarcoma 180 tumor): 36%
10 | COC(=O)c1c(C)[nH]c2c(OC(=O)c3nccnc3N)cc3c(c12)C(CBr)CN3C(=O)/C=C/c1ccc(OC)c(N(C)C)c1 (stereo not shown) [Compound 58] | – | > 20 | – | – | –
11 | COC(=O)c1c(C)[nH]c2c(OC(=O)c3cccnc3)cc3c(c12)C(CBr)CN3C(=O)/C=C/c1cnc(OC)nc1 (stereo not shown) [Compound 67] | – | – | 1.0 | 1.2 | response vs control in vivo at 1 mg/kg (Sarcoma 180 tumor): 26%
12 | COC(=O)c1c(C)[nH]c2c(OC(=O)NN3CCN(C)CC3)cc3c(c12)C(CBr)CN3C(=O)/C=C/c1cnc(OC)nc1 (stereo not shown) [Compound 71] | – | > 10 | – | 1.5 | response vs control in vivo at 2 mg/kg (Sarcoma 180 tumor): 30%
13 | COC(=O)c1c(C)[nH]c2c(OC(=O)CSCC(=O)O)cc3c(c12)C(CBr)CN3C(=O)/C=C/c1cnc(OC)nc1 (stereo not shown) [Compound 73] | 1.2 | < 0.1 | – | – | response vs control in vivo at 1 mg/kg (Sarcoma 180 tumor; [3]): 36%
14 | COC(=O)c1c(C)[nH]c2c(OC(=O)N(C)N)cc3c(c12)C(CBr)CN3C(=O)/C=C/c1cnc(OC)nc1 (stereo not shown) [Compound 74] | – | – | – | 2.4 | response vs control in vivo at 1 mg/kg (Sarcoma 180 tumor): 37%
15 | COC(=O)c1c(C)[nH]c2c(OC(=O)c3ccc(CN4CCN(C)CC4)cc3)cc3c(c12)C(CBr)CN3C(=O)/C=C/c1cnc(OC)nc1 (stereo not shown) [Compound 76] | 1.3 | > 10 | – | – | response vs control in vivo at 1 mg/kg (Sarcoma 180 tumor; [3]): 25%
16 | COC(=O)c1c(C)[nH]c2c(OC(=O)c3cccnc3)cc3c(c12)C(CBr)CN3C(=O)/C=C/c1ccc(N(C)C)cc1 (stereo not shown) [Compound 77] | – | – | 4.0 | 0.45 | response vs control in vivo at 4 mg/kg (Sarcoma 180 tumor): 19%
17 | COC(=O)c1c(C)[nH]c2c(OC(=O)N3CCN(C)CC3)cc3c(c12)C(CBr)CN3C(=O)/C=C/c1ccc(N(C)C)cc1 (stereo not shown) [Compound 79] | – | > 20 | – | 52 | response vs control in vivo at 8 mg/kg (Sarcoma 180 tumor): 22%
18 | COC(=O)c1c(C)[nH]c2c(O)cc3c(c12)C(CCl)CN3C(=O)/C=C/c1ccc(OC)c(N(C)C)c1 (stereo not shown) [Compound 80] | 0.44 | > 15 | – | – | –
19 | COC(=O)c1c(C)[nH]c2c(O)cc3c(c12)C(CBr)CN3C(=O)/C=C/c1ccc(OC)c(N(C)C)c1 (stereo not shown) [Compound 81] | 0.5 | 2.5 (≈ 4.61 mM) | – | – | –
20 | COC(=O)c1c(C)[nH]c2c(OC(=O)CN3CCN(C)CC3)cc3c(c12)C(CBr)CN3C(=O)/C=C/c1ccc(OC)c(N(C)C)c1 (stereo not shown) [Compound 82] | – | > 10 | 2.0 | 0.5 | –
21 | COC(=O)c1c(C)[nH]c2c(OC(=O)CN3CCC(N4CCCCC4)CC3)cc3c(c12)C(CBr)CN3C(=O)/C=C/c1ccc(OC)c(N(C)C)c1 (stereo not shown) [Compound 83] | 0.59 | > 20 | – | – | –
